Like-named read-outs stand apart in the source and are kept apart here.
Key:
[1] = test system: MCF-7/ADR (doxorubicin-resistant human breast cancer cell line); settings: earlier compounds, ref 19 (4A93), 20 (6C44), cited from earlier work; for IC50: read-out: IC50 MCF-7/ADR (Figure 2)
[2] = test system: human normal mammary epithelial cell lines MCF-10A; assay: Cytotoxicity in normal mammary epithelial cells (MTT); type: cell-based; settings: normal mammary epithelial cell line
Text: The MDA-MB-468 cell line was procured from the Cell Bank of the Chinese Academy of Sciences. The MCF-7, MCF-7/ADR, MCF-10A, and MDA-MB-231 cell lines were kindly provided by Professor Xianyi Sha (Fudan University, Shanghai, China). The HUVEC cells were kindly provided by Associate Professor Hulie Zeng (Fudan University, Shanghai, China). The MDA-MB-468, MDA-MB-231, MCF-7, MCF-10A, and HUVEC cells were cultivated in DMEM (Service Biotechnology, China) supplemented with 10% FBS (Capricorn Scientific, Germany) and 1% penicillin-streptomycin (Meilunbio, Dalian, China). For the MCF-7/ADR cells, they were cultured in RPMI-1640 (Service Biotechnology, Wuhan, China), containing 10% FBS and 1% penicillin-streptomycin. […]
(§1) Following harvest during logarithmic growth, cells were plated in 96-well culture plates at an initial density of 5000 cells per well. […] The OD value at 570nm was measured using a microplate reader (Thermo Fisher, Waltham, MA, USA). Cell proliferation inhibition was determined using the following formula:Inhibition (%) = [(ODDMSO − ODcompd.)/(ODDMSO − ODblank)] × 100
GraphPad Prism software 9 was used to calculate the IC50 values. […] For instance, in the cell experiment, we recorded the cell viability values at different drug concentrations. […]

[3] = Solubility experiment (HPLC) in water/acetonitrile; type: physicochemical; settings: in water/acetonitrile (table title)
Procedure: Wavelength: 254 nm; flow rate: 1.0 mL/min; column temperature: 25 °C. Mobile phase: Phase A: water, Phase B: acetonitrile (Table 5).
Compounds were dissolved in chromatographic-grade acetonitrile and diluted to concentrations of 200, 100, 50, 25, 12.5, and 6.25 µg/mL. A standard curve was plotted using the peak area under the curve (AUC) versus concentration. […] The supernatant was filtered through an ultrafiltration membrane and then subjected to HPLC analysis. The solubility of the target compound was determined by substituting the AUC of the test compound into the standard curve. Each measurement was performed in triplicate.

[4] = test system: MCF-7/ADR (doxorubicin-resistant human breast cancer cell line); assay: In vitro antiproliferative assay (MTT, 48 h), MCF-7/ADR; type: cell-based; settings: for Selectivity Ratio IC50(MCF-7)/ IC50(MCF-7/ADR): collateral sensitivity; for IC50: Homo sapiens, NCI/ADR-RES, MTT, 48 h, mean of three determinations
Text: (§2) The MDA-MB-468 cell line was procured from the Cell Bank of the Chinese Academy of Sciences. The MCF-7, MCF-7/ADR, MCF-10A, and MDA-MB-231 cell lines were kindly provided by Professor Xianyi Sha (Fudan University, Shanghai, China). The HUVEC cells were kindly provided by Associate Professor Hulie Zeng (Fudan University, Shanghai, China). The MDA-MB-468, MDA-MB-231, MCF-7, MCF-10A, and HUVEC cells were cultivated in DMEM (Service Biotechnology, China) supplemented with 10% FBS (Capricorn Scientific, Germany) and 1% penicillin-streptomycin (Meilunbio, Dalian, China). For the MCF-7/ADR cells, they were cultured in RPMI-1640 (Service Biotechnology, Wuhan, China), containing 10% FBS and 1% penicillin-streptomycin. Additionally, 500 ng/mL of doxorubicin (Sigma-Aldrich, Saint Louis, MO, USA) was incorporated into the RPMI-1640 culture medium to keep drug resistance. All cell lines were cultured in a humidified incubator at 37 °C with a 5% CO2 atmosphere.
Following harvest during logarithmic growth, cells were plated in 96-well culture plates at an initial density of 5000 cells per well. Incubate the plate overnight at 37 °C to allow the cells to adhere. Following the overnight incubation, introduce the compound at the predetermined concentration into each well, and then return the plate to the incubator for an additional 48 h culture period. After the 48 h treatment, carefully aspirate the drug-containing medium from each well. Subsequently, add 150 μL of 0.5 mg/mL MTT (Beyotime, China) solution to each well. Protect the plate from light and incubate it at 37 °C for 4 h to allow the formation of formazan crystals. Finally, add 150 μL of DMSO (Sinopharm, China) to each well and gently mix to ensure complete dissolution of the formazan crystals. The OD value at 570nm was measured using a microplate reader (Thermo Fisher, Waltham, MA, USA). Cell proliferation inhibition was determined using the following formula:Inhibition (%) = [(ODDMSO − ODcompd.)/(ODDMSO − ODblank)] × 100
GraphPad Prism software 9 was used to calculate the IC50 values. The specific calculation process is as follows: Firstly, we input the experimental data into Prism. The data include the concentrations of the experimental compounds and the corresponding biological response values. For instance, in the cell experiment, we recorded the cell viability values at different drug concentrations. Subsequently, we select the option of “Dose–Response–Nonlinear Regression” in the “Analyze” menu for curve fitting. Generally speaking, we use the model of “[Inhibitor] vs. normalized response—Variable slope”. The Prism software fits the data through the nonlinear least squares method and finds the parameter values that can minimize the difference between the model’s predicted values and the actual data. After completing the curve fitting, the software will directly provide the estimated values and confidence intervals of the IC50 value and other relevant parameters. Meanwhile, it will also offer goodness-of-fit indices, such as the correlation coefficient, to evaluate the quality of the fitting. Through the above method, we can accurately calculate the IC50 value, thereby assessing the intensity of the inhibitory or activating effect of the compound on the biological system.

[5] = test system: HUVEC (human umbilical vein endothelial cell lines); assay: Cytotoxicity screen in HUVEC; type: cell-based; settings: 500 nM concentration
Text: as §2
as §1, with “well. Incubate the plate overnight at 37 °C to allow the cells to adhere.” for “well.”, “100 […]” for “100”

SMILES: Cc1c(Cc2ccc(C(F)(F)F)cc2)c(=O)oc2cc(OCCOc3no[n+]([O-])c3S(=O)(=O)c3ccccc3)ccc12 [Compound 4A93]
- IC50 [1]: 5 nM

SMILES: COc1cc(OCCOc2no[n+]([O-])c2S(=O)(=O)c2ccccc2)ccc1C(=O)/C=C/c1ccccc1 [Compound 6C44]
- IC50(MCF-7)/IC50(MCF-7/ADR) (Figure 2) [1]: 199.2
- IC50 [1]: 4.2 nM

SMILES: COc1ccc(/C=C/C(=O)c2ccc(OCCCOc3no[n+]([O-])c3S(=O)(=O)c3ccccc3)cc2OC)cc1 [Compound 6d, (E)-4-(3-(3-methoxy-4-(3-(4-methoxyphenyl)acryloyl)phenoxy)propoxy)-3-(phenylsulfonyl)-1,2,5-oxadiazole 2-oxide]
- IC50 [2]: 13400 nM
- Solubility [3]: 24.3 ± 2.5%
- Selectivity Ratio IC50(MCF-7)/ IC50(MCF-7/ADR) [4]: 91.1

SMILES: COc1cc(OCCOc2no[n+]([O-])c2S(=O)(=O)c2ccccc2)ccc1C(C)=O [Compound 12a, 4-(2-(4-acetyl-3-methoxyphenoxy)ethoxy)-3-(phenylsulfonyl)-1,2,5-oxadiazole 2-oxide]
- cell survival probability in HUVEC [5]: over 90%
- Solubility [3]: 67.9 ± 7.8%
- Selectivity Ratio IC50(MCF-7)/ IC50(MCF-7/ADR) [4]: 189.3

SMILES: COc1cc(OCCCOc2no[n+]([O-])c2S(=O)(=O)c2ccccc2)ccc1C(C)=O [Compound 12b, 4-(3-(4-acetyl-3-methoxyphenoxy)propoxy)-3-(phenylsulfonyl)-1,2,5-oxadiazole 2-oxide]
- Solubility [3]: 384 ± 9.3%
- Selectivity Ratio IC50(MCF-7)/ IC50(MCF-7/ADR) [4]: 65.6

SMILES: O=C(NCc1ccccc1)c1ccc(OCCOc2no[n+]([O-])c2S(=O)(=O)c2ccccc2)cc1O [Compound 16a, 4-(2-(4-(benzylcarbamoyl)-3-hydroxyphenoxy)ethoxy)-3-(phenylsulfonyl)-1,2,5-oxadiazole 2-oxide]
- Solubility [3]: 125 ± 7.1%
- Selectivity Ratio IC50(MCF-7)/ IC50(MCF-7/ADR) [4]: 7.2

SMILES: O=C(NCc1ccc(F)cc1)c1ccc(OCCOc2no[n+]([O-])c2S(=O)(=O)c2ccccc2)cc1O [Compound 16b, 4-(2-(4-((4-fluorobenzyl)carbamoyl)-3-hydroxyphenoxy)ethoxy)-3-(phenylsulfonyl)-1,2,5-oxadiazole 2-oxide]
- Solubility [3]: 31.6 ± 6.8%
- Selectivity Ratio IC50(MCF-7)/ IC50(MCF-7/ADR) [4]: 27.8

SMILES: Nc1ccc(CNC(=O)c2ccc(OCCOc3no[n+]([O-])c3S(=O)(=O)c3ccccc3)cc2O)cc1 [Compound 16c, 4-(2-(4-((4-aminobenzyl)carbamoyl)-3-hydroxyphenoxy)ethoxy)-3-(phenylsulfonyl)-1,2,5-oxadiazole 2-oxide]
- Solubility [3]: 327 ± 11.6%
- Selectivity Ratio IC50(MCF-7)/ IC50(MCF-7/ADR) [4]: 95.4

SMILES: O=C(NCc1ccc(C(F)(F)F)cc1)c1ccc(OCCOc2no[n+]([O-])c2S(=O)(=O)c2ccccc2)cc1O [Compound 16d, 4-(2-(3-hydroxy-4-((4-(trifluoromethyl)benzyl)carbamoyl)phenoxy)ethoxy)-3-(phenylsulfonyl)-1,2,5-oxadiazole 2-oxide]
- Solubility [3]: 61.1 ± 2.6%
- IC50 [4]: 10.5 nM
- Selectivity Ratio IC50(MCF-7)/ IC50(MCF-7/ADR) [4]: 257.8

SMILES: N#Cc1ccc(CNC(=O)c2ccc(OCCOc3no[n+]([O-])c3S(=O)(=O)c3ccccc3)cc2O)cc1 [Compound 16e, 4-(2-(4-((4-cyanobenzyl)carbamoyl)-3-hydroxyphenoxy)ethoxy)-3-(phenylsulfonyl)-1,2,5-oxadiazole 2-oxide]
- Solubility [3]: 33.8 ± 5.3%
- IC50 [4]: 5.36 nM
- Selectivity Ratio IC50(MCF-7)/ IC50(MCF-7/ADR) [4]: 561.9

SMILES: O=C(NCc1ccc(O)cc1)c1ccc(OCCOc2no[n+]([O-])c2S(=O)(=O)c2ccccc2)cc1O [Compound 16f, 4-(2-(3-hydroxy-4-((4-hydroxybenzyl)carbamoyl)phenoxy)ethoxy)-3-(phenylsulfonyl)-1,2,5-oxadiazole 2-oxide]
- Solubility [3]: 81.0 ± 7.9%
- Selectivity Ratio IC50(MCF-7)/ IC50(MCF-7/ADR) [4]: 64.4

SMILES: COc1cc(OCCOc2no[n+]([O-])c2S(=O)(=O)c2ccccc2)ccc1C(=O)NCc1ccccc1 [Compound 18a, 4-(2-(4-(benzylcarbamoyl)-3-methoxyphenoxy)ethoxy)-3-(phenylsulfonyl)-1,2,5-oxadiazole 2-oxide]
- Solubility [3]: 70.3 ± 6.1%
- Selectivity Ratio IC50(MCF-7)/ IC50(MCF-7/ADR) [4]: 47.8

SMILES: COc1cc(OCCOc2no[n+]([O-])c2S(=O)(=O)c2ccccc2)ccc1C(=O)NCc1ccc(F)cc1 [Compound 18b, 4-(2-(4-((4-fluorobenzyl)carbamoyl)-3-methoxyphenoxy)ethoxy)-3-(phenylsulfonyl)-1,2,5-oxadiazole 2-oxide]
- Solubility [3]: 60.9 ± 9.8%
- Selectivity Ratio IC50(MCF-7)/ IC50(MCF-7/ADR) [4]: 101.7

SMILES: COc1cc(OCCOc2no[n+]([O-])c2S(=O)(=O)c2ccccc2)ccc1C(=O)NCc1ccc(C(F)(F)F)cc1 [Compound 18d, 4-(2-(3-methoxy-4-((4-(trifluoromethyl)benzyl)carbamoyl)phenoxy)ethoxy)-3-(phenylsulfonyl)-1,2,5-oxadiazole 2-oxide]
- Solubility [3]: 26.2 ± 7.2%
- IC50 [4]: 6.56 nM
- Selectivity Ratio IC50(MCF-7)/ IC50(MCF-7/ADR) [4]: 163.0

SMILES: COc1cc(OCCOc2no[n+]([O-])c2S(=O)(=O)c2ccccc2)ccc1C(=O)NCc1ccc(C#N)cc1 [Compound 18e, 4-(2-(4-((4-cyanobenzyl)carbamoyl)-3-methoxyphenoxy)ethoxy)-3-(phenylsulfonyl)-1,2,5-oxadiazole 2-oxide]
- Solubility [3]: 44.7 ± 10.2%
- IC50 [4]: 19.9 nM
- Selectivity Ratio IC50(MCF-7)/ IC50(MCF-7/ADR) [4]: 235.0
